Literature values, collected in US20190091218A1 (priority 2016, published 2019).
Where two headings read alike, the source gives them in different places.

Legend:
[1] = system: histamine induced wheal and flare
H1 receptor = H1 receptor (Homo sapiens, UniProt P35367); conditions: acidic pH
[2] = not given; remark: listed apart in the source
[3] = standard 10 mg oral dose

Sequence of H1 receptor (P35367 whole entry): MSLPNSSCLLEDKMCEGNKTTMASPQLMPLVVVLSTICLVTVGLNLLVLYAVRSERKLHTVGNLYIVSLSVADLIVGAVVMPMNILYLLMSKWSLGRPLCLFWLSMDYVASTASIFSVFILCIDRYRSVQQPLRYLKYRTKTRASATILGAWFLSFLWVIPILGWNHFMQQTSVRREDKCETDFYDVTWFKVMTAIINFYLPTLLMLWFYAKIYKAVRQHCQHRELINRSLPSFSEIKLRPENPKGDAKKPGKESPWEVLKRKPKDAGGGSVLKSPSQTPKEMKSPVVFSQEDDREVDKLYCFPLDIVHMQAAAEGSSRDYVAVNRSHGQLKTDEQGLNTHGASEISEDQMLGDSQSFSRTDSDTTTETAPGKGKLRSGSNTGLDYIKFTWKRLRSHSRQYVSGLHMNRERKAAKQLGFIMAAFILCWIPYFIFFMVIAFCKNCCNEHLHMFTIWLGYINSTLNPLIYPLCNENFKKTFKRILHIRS

| Structure (SMILES) | potency among modern generation antihistamines ([1]; histamine induced wheal and flare data) | effectiveness versus fexofenadine ([1]; levocetirizine 5 mg per day vs fexofenadine 180 mg per day) | levels of HRV-induced increases in ICAM-1 (human rhinovirus (HRV); added before, after, or at the time of the HRV infection) | HRV-induced ICAM-1, cytokine expression, and viral replication (human rhinovirus (HRV); airway epithelial cells from nose and lung) | receptor affinity over first generation mepyramine (H1 receptor) [×] | time to steady state level (in vivo) [h] | peak concentration (repeated 5 mg once daily oral dose) [ng/mL] | peak concentration (single 5 mg oral dose) [ng/mL] | dose that can be safely administered ([2]; studies in humans) | mean AUC [3] [ng/h/mL] | dose administered without clinically relevant side effects ([2]; adult patients, 22 weeks) | dose administered without clinically relevant side effects ([2]; short-term studies, approximately one week) |
| --- | --- | --- | --- | --- | --- | --- | --- | --- | --- | --- | --- | --- |
| O=C(O)COCCN1CCN([C@H](c2ccccc2)c2ccc(Cl)cc2)CC1 [levocetirizine] | most potent of the five modern generation antihistamines | more effective than fexofenadine | reduced | inhibit | 5 | 40 | 308 | 270 | up to 30 mg/day |  |  |  |
| CC(C)(O)c1ccccc1CC[C@@H](SCC1(CC(=O)O)CC1)c1cccc(/C=C/c2ccc3ccc(Cl)cc3n2)c1 [montelukast] |  |  |  |  |  |  |  |  |  | 2689 | up to 200 mg/day | up to 900 mg/day |
